Where two headings read alike, the source gives them in different places.
Assays:
Format in all cases: physicochemical
[1] = Stability of the solids at different temperatures
[2] = Determination of moisture contents with KF moisture meter at different time points (hygroscopicity); conditions: for moisture content (%): temperature 23° C., humidity 92.5%; for hygroscopicity of the solid acid: easy to deliquesce; for moisture content of the complex compared with the acid, the sodium salt and their mixture: summary of Tables 2A-2C
Excerpt: For R-3-hydroxybutyric acid, sodium R-3-hydroxybutyrate, Mixture of R-3-hydroxybutyric acid and sodium R-3-hydroxybutyrate, as well as R-3-hydroxybutyric acid·sodium R-3-hydroxybutyrate complex of Examples 1-6, under a certain condition, KF moisture meter was used to determine the moisture contents at different time points.
(§1) For 3-hydroxybutyric acid, sodium 3-hydroxybutyrate, mixture of 3-hydroxybutyric acid and sodium 3-hydroxybutyrate, as well as 3-hydroxybutyric acid·sodium 3-hydroxybutyrate complex of Examples 7-9, under a certain condition, KF moisture meter was used to determine the moisture contents at different time points.
as §1, with “S-3-hydroxybutyric” for “3-hydroxybutyric”, “S-3-hydroxybutyrate,” for “3-hydroxybutyrate,”, “S-3-hydroxybutyrate” for “3-hydroxybutyrate”, “10-12,” for “7-9,”

[3] = Stability of the solids at different temperatures; remark: listed apart in the source
Procedure: For R-3-hydroxybutyric acid, sodium R-3-hydroxybutyrate, mixture of R-3-hydroxybutyric acid and sodium R-3-hydroxybutyrate, as well as R-3-hydroxybutyric acid·sodium R-3-hydroxybutyrate complex of Examples 1-6, the stability was measured at 60° C., 70° C. and 80° C., and the experimental results are shown in Table 3A.
For 3-hydroxybutyric acid, sodium 3-hydroxybutyrate, mixture of 3-hydroxybutyric acid and sodium 3-hydroxybutyrate, as well as 3-hydroxybutyric acid·sodium 3-hydroxybutyrate complex of Examples 7-9, the stability was measured at 60° C., 70° C. and 80° C., and the experimental results are shown in Table 3B.
For S-3-hydroxybutyric acid, sodium S-3-hydroxybutyrate, mixture of S-3-hydroxybutyric acid and sodium S-3-hydroxybutyrate, as well as S-3-hydroxybutyric acid·sodium S-3-hydroxybutyrate complex of Examples 10-12, the stability was measured at 60° C., 70° C. and 80° C., and the experimental results are shown in Table 3C.

Structure (SMILES)	Stability ([1]; 30° C.)	Stability ([1]; 40° C.)	Stability ([1]; 50° C.)	moisture content (%) ([2]; 30 min)	moisture content (%) ([2]; 1 h)	moisture content (%) ([2]; 2 h)	moisture content (%) ([2]; 4 h)	moisture content (%) ([2]; 6 h)	moisture content (%) ([2]; 7 h)	moisture content (%) ([2]; 11 h)	moisture content (%) ([2]; 22 h)	Stability ([3]; 60° C.)	Stability ([3]; 70° C.)	Stability ([3]; 80° C.)	hygroscopicity of the solid acid [2]	Stability [3]	hygroscopicity of the complex compared with the acid, the sodium salt and their mixture [2]	moisture content of the complex compared with the acid, the sodium salt and their mixture [2]	stability of the complex [3]
C[C@H](O)CC(=O)[O-].[Na+] [Sodium S-3-hydroxybutyrate, sodium S-3-hydroxybutyrate]	unchanged	unchanged	unchanged	1.09	2.07	3.49	5.32	7.46	8.15	12.73	24.53	unchanged	unchanged	unchanged	–	–	–	–	–
CC(O)CC(=O)O (stereo not shown) [3-hydroxybutyric acid]	–	–	–	1.32	2.37	4.15	6.59	9.68	10.71	17.33	33.51	–	–	–	strong hygroscopicity	–	–	–	–
CC(O)CC(=O)[O-].[Na+] (stereo not shown) [Sodium 3-hydroxybutyrate, sodium 3-hydroxybutyrate]	–	–	–	1.15	2.19	3.62	5.35	7.54	8.35	12.86	24.95	–	–	–	–	unchanged	–	–	–
CC(O)CC(=O)O (stereo not shown) [3-hydroxybutyric acid • sodium 3-hydroxybutyrate complex] [3-hydroxybutyric acid·sodium 3-hydroxybutyrate]	–	–	–	0.61	1.18	2.05	3.38	4.99	5.52	8.73	17.63	–	–	–	–	unchanged	obviously superior	significantly lower	very high
C[C@@H](O)CC(=O)O [R-3-hydroxybutyric acid • sodium R-3-hydroxybutyrate complex] [R-3-hydroxybutyric acid·sodium R-3-hydroxybutyrate]	–	–	–	0.54	1.02	1.96	3.26	4.89	5.39	8.65	17.45	–	–	–	–	unchanged	obviously superior	significantly lower	very high
C[C@@H](O)CC(=O)O [R-3-hydroxybutyric acid]	–	–	–	1.13	2.25	3.96	6.46	9.52	10.56	17.22	33.34	–	–	–	strong hygroscopicity	–	–	–	–
C[C@@H](O)CC(=O)[O-].[Na+] [Sodium R-3-hydroxybutyrate, sodium R-3-hydroxybutyrate]	–	–	–	1.04	2.01	3.39	5.23	7.35	8.04	12.68	24.68	–	–	–	–	unchanged	–	–	–
C[C@H](O)CC(=O)O [S-3-hydroxybutyric acid·sodium S-3-hydroxybutyrate]	–	–	–	0.71	1.38	1.85	3.28	4.79	5.32	8.43	16.93	–	–	–	–	unchanged	obviously superior	significantly lower	very high
C[C@H](O)CC(=O)O [S-3-hydroxybutyric acid]	unchanged	–	melted	1.23	2.28	4.05	6.32	9.53	10.62	17.08	32.95	melted	melted	melted	strong hygroscopicity	–	–	–	–

Reference: patent US20250221948A1, “Complex of 3-hydroxybutyric acid and sodium 3-hydroxybutyrate and preparation method thereof” (priority 2022, published 2025)
